# How the values were obtained:
# AAD1 (v1) = biological target: T1, AAD1 (v1) (Sphingobium herbicidovorans, UniProt Q8KSC8); experiment: Colorimetric phenol detection assay of AAD1 (v1) activity (purified enzyme or E. coli extract); format: biochemical
# T1 construct: made in house; host or cells: E. coli BL-21 Star (DE3), plasmid pDAB3203
# immature Hi-II embryos = experiment: Dose response using immature maize embryos (% embryogenic callus formation); format: cell-based; details: up to 30 nM
# Description: Dose response studies were initiated using immature embryos treated with Agrobacterium strain LBA4404 lacking a plasmid as described previously. Once treated, embryos were allowed to co-cultivate for 5 days at 25° C. and were then transferred to selection media containing various levels of R-haloxyfop or R-cyhalofop. Embryos were also transferred to media containing 1 mg/L bialaphos and 100 nM imazethapyr as negative controls. Embryos were scored for % embryogenic callus formation after 2 weeks, and then again after 4 weeks.
# AAD2 (v1) = AAD2 (v1) (Bradyrhizobium diazoefficiens, UniProt Q89UC4); experiment: Colorimetric phenol assay of AAD2 (v1) E. coli extract / partially purified enzyme; format: biochemical, Bradyrhizobium japonicum; details: E. coli extract
# [1] = system: non-transformed (NT) ‘Shamrock’ Kentucky bluegrass; experiment: Haloxyfop-R-methyl on non-transformed Kentucky bluegrass controls; format: in vivo; details: seed grown plants
# Description: The selected T0 plants were sprayed with haloxyfop-R-methyl (Gallant Super®, DOW AGROSCIENCES, INC.) at rates ranging from 140 to 560 g ae/ha. […] This rate would also control susceptible monocot weed species. Measured amounts were placed individually in 25 mL glass vials and dissolved in a 12 mL volume of 1.0% (v/v) Agri-Dex® Crop Oil Concentrate (COC).
# Spray solutions were applied to the plant material with an overhead Mandel™ track sprayer equipped with a 8002E nozzles calibrated to deliver 187 L/ha over an application area of 0.503 square meters (m^2) at a spray height of 18 inches (46 cm) above average plant canopy height. Control plants were sprayed in the same manner with the COC blank.
# The treated plants and control plants were placed in a greenhouse and watered by sub-irrigation to prevent wash-off of the test compounds. At various times after application, the condition of the test plants as compared with that of the untreated plants was determined visually and scored on a scale of 0 to 100 percent, where 0 corresponds to no injury or growth inhibition, and 100 corresponds to complete kill. Regenerated, non-transformed (NT) ‘Shamrock’ Kentucky bluegrass plants and/or seed-derived clonally propagated plants served as haloxyfop sensitive controls.
# [2] = system: pDAB3230-transformed Arabidopsis; experiment: Glyphosate tolerance of pDAB3230 (AAD1 (v3)+EPSPS) T1 Arabidopsis; format: in vivo, Arabidopsis thaliana; details: 7 DAT; EPSPS stacked with AAD1 (v3)
# Hi II X 5XH751 = experiment: Greenhouse injury of non-transformed Hi II X 5XH751 corn (2,4-D DMA, glyphosate, glufosinate and combinations); format: in vivo
# Description: (§1) F1 seeds were planted individually into 3-inch pots prepared with Metro-Mix® 360 growing medium (Sun Gro Horticulture). […] For the remainder of the study the plants were subirrigated with deionized water.
# (§2) The plants were sprayed with rates of 2,4-D DMA, glyphosate, glufosinate, and various combinations of the three. All applications were formulated in 200 mM Hepes buffer (pH 7.5). In spray applications where glufosinate was present the treatment was formulated with the addition of 2% w/v ammonium sulfate.
# (§3) At 3 and 14 days after treatment (DAT) plants were evaluated. Plants were assigned injury rating with respect to stunting, chlorosis, and necrosis. Plants assigned an injury rating of 90% or above are considered dead.
# [3] = system: F1 corn containing AAD1 (v3), PAT, and glyphosate resistance genes; experiment: Greenhouse injury of F1 corn stacked with AAD1 (v3), PAT and glyphosate resistance (2,4-D DMA, glyphosate, glufosinate and combinations); format: in vivo; details: RR/PAT/AAD1
# Description: Homozygous T2 AAD1 (v3)/PAT corn plants were crossed with glyphosate resistant corn plants producing F1 seed containing AAD1 (v3), PAT, and glyphosate resistance genes as described in the previous example.
# as §1, §2, §3
# [4] = system: transformed-control line containing PAT and Cry1F; experiment: Foliar-applied auxinic herbicides on control (PAT/Cry1F, wildtype) Arabidopsis, % injury 14 DAT; format: in vivo, Arabidopsis thaliana; details: PatCry1f - Control
# Outline: (§4)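 Homozygous T4 AAD1 (v3) Arabidopsis (line AAD1.01.315.076) and a PAT/Cry1F transformed control were grown in pots and track-sprayed foliarly at 187 L/ha with herbicides formulated in 200 mM Hepes pH 7.5. Injury was rated 14 days after treatment, with 3-4 replicates averaged over two experiments.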
# [5] = system: AAD1 (v3) T1 tobacco (events 721(2)-013.010 and 721(3)-008.005); experiment: Segregating AAD1 T1 tobacco response to phenoxy auxin herbicides; format: in vivo, Nicotiana tabacum
# Description: (§5) Two AAD1 (v3) tobacco lines (event 721(2)-013.010 and 721(3)-008.005) were chosen from the T0 generation. The T1 seed was stratified, and sown into selection trays much like that of Arabidopsis (Example 6.4), followed by selective removal of untransformed nulls in this segregating population with 280 g ai/ha glufosinate (PAT selection). Survivors were transferred to individual 3-inch pots in the greenhouse. […] Improved consistency of response is anticipated in T1 plants not having come directly from tissue culture. These plants were compared against wildtype KY 160 tobacco. All plants were sprayed with the use of a track sprayer set at 187 L/ha. […] All applications were formulated in 200 mM Hepes buffer (pH 7.5). Each treatment was replicated 4 times. Plants were evaluated at 3 and 14 days after treatment. Plants were assigned injury rating with respect to stunting, chlorosis, and necrosis. The T1 generation is segregating, so some variable response is expected due to difference in zygosity. (Table 28).
# AAD1 (v3) cotton plant = experiment: 2,4-D resistance of AAD1 (v3) cotton plant; format: in vivo; details: 560 g ae/ha
# Description: (§6) Two AAD1 (v3) cotton lines have produced plants according to the above protocol that have been sent to the greenhouse. […] The plants were sprayed at 560 g ae/ha 2,4-DMA formulated in 200 mM Hepes buffer (pH 7.5). The plants were evaluated at 3, 7, and 14 days after treatment. Plants were assigned injury ratings with respect to stunting, chlorosis, and necrosis. Plants assigned an injury rating of 90% or above are considered dead. […] By 7 DAT epinasy continued on the wild-type and the new growth shoots began turning brown. It received a rating of 50% at this time. At 14 DAT the AAD1 (v3) plant was still uninjured, whereas the wild-type was severely stunted, and the new growth areas were brown and shriveled. Thus, the wild-type received a rating of 90% at 14 DAT.
# wildtype KY 160 tobacco = experiment: Wildtype tobacco response to phenoxy auxin herbicides; format: in vivo, Nicotiana tabacum; details: KY160-Wildtype
# Description: Each treatment was replicated 1-3 times. Injury ratings were recorded 3 and 14 DAT. […] In several events, some initial auxinic herbicide-related epinasty occurred at doses of 800 g ae/ha or less. […] All events suffered some level temporary auxinic damage 3 DAT when treated with 3200 g ae/ha. Some leaf burning also occurred at this high rate due to the acidity of the spray solution. Future trials at high 2,4-D rates were buffered. […] Some events were inconsistent in response among replicates and were deemed “variable” (Table 27).
# as §5
# wild-type cotton plants = experiment: 2,4-D injury of wild-type cotton plant; format: in vivo; details: 560 g ae/ha
# Description: as §6
# [6] = system: T4 Arabidopsis homozygous for AAD1 (v3) (line AAD1.01.315.076); experiment: Foliar-applied auxinic herbicides on homozygous T4 AAD1 (v3) Arabidopsis, % injury 14 DAT; format: in vivo, Arabidopsis thaliana; details: AAD1.01.315.076.T4 homozygous AAD1 plants
# Outline: as §4
structure (smiles),measurement,setting,value
C[C@@H](Oc1ccc(Oc2ncc(C(F)(F)F)cc2Cl)cc1)C(=O)O [R-haloxyfop],activity of AAD1 (v1) E. coli extract on substrate,"AAD1 (v1); 0.5 mM substrate, 4 μl extract, 15 min","equivalent to that on (R,S)-haloxyfop"
same,kcat,AAD1 (v1); purified AAD1 (v1),0.187 s⁻¹
same,Km,"AAD1 (v1); purified AAD1 (v1), 25 mM MOPS pH 6.8, 25° C., read-out: Km ± SE",120 ± 54 µM
same,Vmax ± SE,"AAD1 (v1); purified AAD1 (v1), Michaelis-Menten fit",0.34 ± 0.04 μmol min^−1 mg^−1 AAD1
same,reduction of embryogenic callus formation,immature Hi-II embryos,insufficient reduction of callus formation
same,AAD2 (v1) activity on substrate,AAD2 (v1),unable to act
COC(=O)[C@@H](C)Oc1ccc(Oc2ncc(C(F)(F)F)cc2Cl)cc1 [haloxyfop-R-methyl],GR90 (herbicide rate which produces 90% injury and/or growth inhibition),[1],approximately 70 g ae/ha
O=C(O)CNCP(=O)(O)O [glyphosate],level of glyphosate tolerance (I50) vs. wildtype and transformed control lines,[2],> 14 fold
same,% Injury at 14 DAT Ave,Hi II X 5XH751; 840 g ae/ha (1X field rate),98%
same,% Injury at 14 DAT Ave,Hi II X 5XH751; 1680 g ae/ha (2X),100%
same,% Injury at 14 DAT Ave,Hi II X 5XH751; 3360 g ae/ha (4X),100%
same,% Injury at 14 DAT Ave,[3]; 840 g ae/ha (1X field rate),0%
same,% Injury at 14 DAT Ave,[3]; 1680 g ae/ha (2X),0%
same,% Injury at 14 DAT Ave,[3]; 3360 g ae/ha (4X),0%
"CNC.O=C(O)COc1ccc(Cl)cc1Cl [2,4-DMA]",Ave % Injury 14DAT,[4]; 12.5 g ae/ha foliar,67%
same,Ave % Injury 14DAT,[4]; 25 g ae/ha foliar,78%
same,Ave % Injury 14DAT,[4]; 50 g ae/ha foliar,93%
same,Ave % Injury 14DAT,[4]; 100 g ae/ha foliar,100%
same,Ave % Injury 14DAT,[4]; 200 g ae/ha foliar,100%
same,Ave % Injury 14DAT,[4]; 400 g ae/ha foliar,100%
same,Ave % Injury 14DAT,[4]; 800 g ae/ha foliar,100%
same,Ave % Injury 14DAT,[4]; 1600 g ae/ha foliar,100%
same,Average % Injury of Replicates 14 DAT,"[5]; 560 g ae/ha, 721(2)013.010 (medium tolerance in T0 generation)",5%
same,Average % Injury of Replicates 14 DAT,"[5]; 560 g ae/ha, 721(3)008.005 (high tolerance in T0 generation)",0%
same,Average % Injury of Replicates 14 DAT,"[5]; 1120 g ae/ha, 721(2)013.010 (medium tolerance in T0 generation)",5%
same,Average % Injury of Replicates 14 DAT,"[5]; 1120 g ae/ha, 721(3)008.005 (high tolerance in T0 generation)",2%
same,Average % Injury of Replicates 14 DAT,"[5]; 2240 g ae/ha, 721(2)013.010 (medium tolerance in T0 generation)",5%
same,Average % Injury of Replicates 14 DAT,"[5]; 2240 g ae/ha, 721(3)008.005 (high tolerance in T0 generation)",0%
same,Average % Injury of Replicates 14 DAT,"[5]; 4480 g ae/ha, 721(2)013.010 (medium tolerance in T0 generation)",5%
same,Average % Injury of Replicates 14 DAT,"[5]; 4480 g ae/ha, 721(3)008.005 (high tolerance in T0 generation)",5%
same,"injury, AAD1 (v3) cotton",AAD1 (v3) cotton plant; 3 DAT,0%
same,"injury, AAD1 (v3) cotton",AAD1 (v3) cotton plant; 14 DAT,uninjured
same,Average % Injury of Replicates 14 DAT,wildtype KY 160 tobacco; 560 g ae/ha,75%
same,Average % Injury of Replicates 14 DAT,wildtype KY 160 tobacco; 1120 g ae/ha,80%
same,Average % Injury of Replicates 14 DAT,wildtype KY 160 tobacco; 2240 g ae/ha,90%
same,Average % Injury of Replicates 14 DAT,wildtype KY 160 tobacco; 4480 g ae/ha,95%
same,"injury rating, wild-type cotton",wild-type cotton plants; 3 DAT,15%
same,"injury rating, wild-type cotton",wild-type cotton plants; 7 DAT,50%
same,"injury rating, wild-type cotton",wild-type cotton plants; 14 DAT,90%
same,% Injury at 14 DAT Ave,Hi II X 5XH751; 560 g ae/ha (1X),10%
same,% Injury at 14 DAT Ave,Hi II X 5XH751; 1120 g ae/ha (2X),14%
same,% Injury at 14 DAT Ave,Hi II X 5XH751; 2240 g ae/ha (4X),29%
same,% Injury at 14 DAT Ave,[3]; 560 g ae/ha (1X),0%
same,% Injury at 14 DAT Ave,[3]; 1120 g ae/ha (2X),0%
same,% Injury at 14 DAT Ave,[3]; 2240 g ae/ha (4X),0%
same,Ave % Injury 14DAT,[6]; 12.5 g ae/ha foliar,0%
same,Ave % Injury 14DAT,[6]; 25 g ae/ha foliar,0%
same,Ave % Injury 14DAT,[6]; 50 g ae/ha foliar,0%
same,Ave % Injury 14DAT,[6]; 100 g ae/ha foliar,0%
same,Ave % Injury 14DAT,[6]; 200 g ae/ha foliar,0%
same,Ave % Injury 14DAT,[6]; 400 g ae/ha foliar,0%
same,Ave % Injury 14DAT,[6]; 800 g ae/ha foliar,0%
same,Ave % Injury 14DAT,[6]; 1600 g ae/ha foliar,0%
